Consider three compounds from article PMC8746705, “Comparison of Experimental Strategies to Study L-Type Amino Acid Transporter 1 (LAT1) Utilization by Ligands” (Molecules, 2021).

Where two headings read alike, the source gives them in different places.

The target in data set [1] is T1, LAT1 (Mus musculus, UniProt Q9Z127). Put plainly: Cis-inhibition of radiolabelled LAT1-probe substrate uptake into BV2 cells. The data set is classed as cell-based. Particulars: 5 min, mean ± SD. As for the experimental part: (§1) After removal of the culture medium, the BV2 cells were carefully washed with pre-warmed HBSS (Hank’s balanced salt solution) containing 125.0 mM choline chloride, 4.8 mM KCl, 1.2 mM MgSO4, 1.2 mM KH2PO4, 1.3 mM CaCl2, 5.6 mM glucose, and 25.0 mM HEPES (pH 7.4 adjusted with 1 M NaOH). Pre-incubation was done with 500 μL of pre-warmed HBSS at 37 °C for 10 min before adding substrates (250 μL in HBSS) for the uptake experiments.
The ability of compounds 1–15 to inhibit the uptake of a known LAT1 substrate [^14C]-L-leucine was then evaluated by incubating the cells at 37 °C for 5 min in uptake buffer pH 7.4 (250 μL) containing 0.2 µCi/mL of [^14C]-L-leucine, or 2 µCi/mL of [^3H]-L-methionine, [^3H]-L-tryptophan or [^3H]-L-kynurenine (PerkinElmer, Waltham, MA, USA) and 0.1–1000 μM of the studied compound (or HBSS as blank). After incubation, the uptake was stopped by adding 250 µL of ice-cold HBSS, and the cells were washed two times with ice-cold HBSS. The cells were then lysed with 500 μL of NaOH (0.1 M) for 60 min and the lysate was mixed with 3.5 mL of Emulsifier safe cocktail (Ultima Gold, PerkinElmer, Waltham, MA, USA). The radioactivity in the cells was measured by liquid scintillation counting (MicroBeta^2 counter, PerkinElmer Waltham, MA, USA). Half of the maximum inhibitory concentration (IC50) values were calculated by nonlinear regression analysis (fitting the curve to log (concentration) vs. remaining normalized […]).

The target of data set [2] is T1, LAT1. Put plainly: Inhibition type of [14C]-L-Leu uptake (Hanes-Woolf plots) in BV2 cells. The data set is classed as cell-based. To be noted: for Vmax of [14C]-L-Leu uptake: 0.010–0.20 µM [14C]-L-Leu in the presence of the compound at its IC50, mean ± SD, n = 3–4; for IC50: Table 2, compound concentration used in the inhibition type study, corresponding to IC50 of [14C]-L-Leu uptake; for Inhibition Type: of [14C]-L-Leu uptake, concluded from Km and Vmax. The method, then:
as §1
To evaluate the inhibition type of studied compounds, the BV2 cells were incubated with 0.010–0.20 μM [^14C]-L-leucine together with the studied compound. The concentration of compounds was selected according to the compound-specific IC50 values. The experiment was then carried out as described for the [^14C]-L-leucine uptake above and the radioactivity was measured by liquid scintillation counting. Hanes-Woolf plots were created by setting the ratio of initial substrate concentration to the reaction velocity ([S]/v) against [^14C]-L-leucine concentration (µM). The linear regression was used to calculate Km value (negative value of x-intercept) and Vmax value (1/slope) for [^14C]-L-leucine.

The nature of data set [3]: Time-dependent cellular uptake of compounds into BV2 cells (LC-MS/MS). The data set is classed as cell-based, mouse. Particulars: mouse, BV2 microglia cells, 100 µM compound, 1–60 min, mean ± SD, n = 3, read-out: T½ of cellular uptake. As for the experimental part:
(§2) For the time-dependent cellular uptake experiments, the BV2 cells on 24-well plates were incubated with studied compounds (100 μM) in a pre-warmed HBSS buffer (250 μL) at 37 °C for 1–60 min. Subsequently, the cells were washed three times with an ice-cold HBSS and lysed with 250 μL of NaOH (0.1 M) for 60 min. The lysates were diluted with acetonitrile (ACN) including the selected internal standard (diclofenac to all compounds) with a ratio of 1:3 and centrifuged at 10,000× g for 10 min. The samples were analyzed by the liquid chromatography-tandem mass spectrometric (LC-MS/MS) methods as described below. The concentrations of each compound in cell lysates were calculated from the standard curve that was prepared by spiking known amounts of compounds to ACN including the selected internal standard and then normalized with protein concentration. The protein concentrations on each plate were determined as a mean of three samples by Bio-Rad Protein Assay, based on the Bradford dye-binding method, using bovine serum albumin (BSA) as a standard protein and measuring the absorbance (595 nm) by multiplate reader (EnVision, Perkin Elmer, Inc., Waltham, MA, USA).
(§3) The studied compounds (1–15) were analyzed by using Agilent 1200 Series Rapid Resolution LC System together with an Agilent 6410 Triple Quadrupole Mass Spectrometer equipped with an electrospray ionization source (Agilent Technologies, Santa Clara, CA, USA). The chromatographic separations of analytes were achieved by using a reversed-phase Zobrax SB-C18 column (50 mm × 2.1 mm, 1.8 μm; Agilent Technologies, Santa Clara, CA, USA) by eluting the samples with 0.1% formic acid in water (A) and 0.1% formic in ACN (B). Labetalol and diclofenac were used as internal standards (ISTD) for the prodrugs and parent drugs, respectively. The transitions used for the quantification at the positive ion mode and chromatographic conditions of each compound and their parent drugs are listed in Table S1. The methods of compounds 1–11 have been reported earlier, while the methods of compounds 12–15 are reported herein for the first time.

The subject of data set [4] is immortalized mouse microglia (BV2). The description is as above. To be noted: 100 µM compound, 1–60 min, mean ± SD, n = 3. The data set is classed as cell-based. The method, then:
as §2, §3

For data set [5], the target named is T1, LAT1. Kind of data set: Concentration-dependent cellular uptake into BV2 cells, Eadie–Hofstee analysis, Transport Type 1 (LAT1). The data set is classed as cell-based. As for the experimental part:
For the concentration-dependent cellular uptake experiments, the BV2 cells on 24-well plates were incubated with studied compounds (1–200 μM) in pre-warmed HBSS buffer (250 μL) at 37 °C for 30 min. The experiment was then carried out as described for the time-dependent uptake above and the concentration of studied compounds in the cell lysate was analyzed by the LC-MS/MS methods described above and the results were normalized to the total protein concentration. The distinct transport mechanisms were separated from the Michaelis-Menten kinetics by using Eadie–Hofstee plot.
as §3

The target in data set [6] is T1, LAT1. Put plainly: Cellular uptake of compounds in the presence of LAT1-inhibitor (KMH-233). The data set is classed as cell-based. To be noted: 100 µM compound, 100 µM KMH-233, 30 min, BV2. As for the experimental part: The competitive uptake in the presence of LAT1-inhibitor (KMH-233) was carried out as described above with HBSS buffer solution containing 100 µM of the studied compounds. The cells were pre-incubated with 100 µM LAT1-inhibitor for 10 min and the incubation mixture was removed before adding the studied compound and LAT1-inhibitor on the cells. The competitive uptake (30 min) with the inhibitor was then carried out as the normal uptake described above. The amounts of studied compounds were analyzed by the LC-MS method and calculated from the spiked standard curve and normalized with the protein concentrations.

A short description of data set [7]: Stability / bioconversion of prodrugs to parent drugs (biological media, 0.1 M NaOH cell lysing). The data set is classed as in vitro ADME. To be noted: cell lysate samples for LC-MS/MS (Table S1 footnote). The source says:
LAT1-utilizing prodrugs 1–15 (Figure 1) were selected for this study based on their ability to utilize LAT1 expressed in cells used in our previous studies. Therefore, the syntheses of these compounds are not described herein as they have been reported earlier. These compounds include prodrugs of an investigational immunosuppressive agent, perforin inhibitor (1), non-steroidal anti-inflammatory drugs (NSAIDs), ketoprofen (2–4, 14), salicylic acid (8), flurbiprofen (9 and 12), ibuprofen (10 and 13) and naproxen (11 and 15), as well as the polyphenolic antioxidant, ferulic acid (5–7). […] In addition, all NSAID prodrugs (compounds 2–4, 9–15) were prepared from their pure S-enantiomers. Prodrugs of ferulic acid (compounds 5–7) were mixtures of E- and […], which were interconvertible over time. […] Therefore, both prodrug and the released parent drug proportions were quantified and taken into account when calculating concentrations transported into the cells.
1. LC-MS/MS ionization parameters of compounds 1-15
Table S1. Ionization parameters for the LC-MS/MS methods of the studied compounds.
Precursor Product Fragmentor Collision Flow rate Gradient LLOQ
Compound ion ion(s) Voltage (V) Energy (mL/min) (A:B) (nM) […]
perforin inhibitor 1a and therefore, their transitions with a positive ion mode are reported only as KPF or as a prodrug and parent drug in parentheses. […]
drugs (ferulic acid (FA), flurbiprofen (FLB), ibuprofen (IBU), and naproxen (NPX), respectively), whose transitions with a negative ion mode are reported below the studied LAT1 -utilizing compounds i n parentheses.

Data set [8] has as its target T1, LAT1. Set-up: method as in earlier work. Particulars: BV2 cells; probe [14C]-L-Leu; mean ± SD; published earlier; ref [31] or [33]; read-out: IC50 of [14C]-L-Leu uptake; cited from earlier work.
Data set [9] has as its target T1, LAT1. Put plainly: LAT1 function followed between cell passages with [14C]-L-leucine. Particulars: BV2 cells, passages 8–15.
The mark [10] stands for this setting: probe [3H]-L-Kynu, n = 3–4, read-out: IC50 of [3H]-L-Kynu uptake.
Where [11] appears, read: probe [3H]-L-Met, n = 3–4, read-out: IC50 of [3H]-L-Met uptake.
[12] abbreviates: probe [3H]-L-Trp, n = 3–4, read-out: IC50 of [3H]-L-Trp uptake.
[13] abbreviates: 1–200 µM, 30 min, BV2, Eadie–Hofstee, mean ± SD, n = 3.

T1 sequence (Q9Z127 whole entry): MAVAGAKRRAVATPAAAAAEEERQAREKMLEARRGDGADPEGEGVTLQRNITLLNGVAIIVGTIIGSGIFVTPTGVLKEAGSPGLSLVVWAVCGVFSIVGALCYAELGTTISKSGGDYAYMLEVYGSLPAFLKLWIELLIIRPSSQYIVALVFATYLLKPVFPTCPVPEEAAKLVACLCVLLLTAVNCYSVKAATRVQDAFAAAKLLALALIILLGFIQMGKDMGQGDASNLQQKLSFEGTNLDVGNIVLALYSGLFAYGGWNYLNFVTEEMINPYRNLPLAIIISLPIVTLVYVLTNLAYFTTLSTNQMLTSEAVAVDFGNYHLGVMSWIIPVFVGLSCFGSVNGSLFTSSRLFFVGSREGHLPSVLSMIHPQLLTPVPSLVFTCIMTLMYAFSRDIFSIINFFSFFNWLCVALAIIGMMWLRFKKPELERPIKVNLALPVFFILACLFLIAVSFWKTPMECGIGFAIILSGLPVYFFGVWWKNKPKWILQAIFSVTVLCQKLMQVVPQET
T1 sequence (P10852 whole entry partner): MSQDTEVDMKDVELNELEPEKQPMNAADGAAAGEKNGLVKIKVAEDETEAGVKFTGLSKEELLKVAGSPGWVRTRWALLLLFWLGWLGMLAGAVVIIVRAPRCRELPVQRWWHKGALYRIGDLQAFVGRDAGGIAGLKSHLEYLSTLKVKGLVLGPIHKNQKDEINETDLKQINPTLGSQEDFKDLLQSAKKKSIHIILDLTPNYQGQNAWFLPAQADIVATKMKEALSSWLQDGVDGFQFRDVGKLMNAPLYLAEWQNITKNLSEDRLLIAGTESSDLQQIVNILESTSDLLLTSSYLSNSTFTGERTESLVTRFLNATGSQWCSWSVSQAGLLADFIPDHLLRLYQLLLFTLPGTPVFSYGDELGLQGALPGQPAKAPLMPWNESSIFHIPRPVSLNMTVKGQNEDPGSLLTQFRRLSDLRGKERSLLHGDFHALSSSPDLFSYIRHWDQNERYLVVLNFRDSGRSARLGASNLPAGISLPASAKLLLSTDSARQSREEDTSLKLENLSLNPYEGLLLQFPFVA

For orientation: IC50 means the concentration that inhibits the measured activity by half. Usually Km stands for the substrate concentration at which the rate is half of its maximum. For the compound `CC(C)Cc1ccc([C@H](C)C(=O)Oc2cccc(C[C@H](N)C(=O)O)c2)cc1` [Compound 13], the IC50 is 9.7 ± 1.2 µM in data set [1] (setting [10]); 9.8 ± 1.4 µM in [1] (setting [11]); 36.3 ± 1.2 µM in data set [1] (setting [12]); 5 µM in [2]; 5.3 ± 1.2 µM in data set [8]. Moreover, the “Vmax of [14C]-L-Leu uptake” value in data set [2] (BV2) came to 2.186 ± 0.231 nmol/min/mg. In data set [2] (BV2), the “Inhibition Type” value is reported as “Mixed type”. Moreover, the half-life at 100 μM in [3] came to 3.6 ± 1.47 min. The Max. cellular uptake in [4] was 25.90 ± 2.41 nmol/mg of protein. In addition, the Km in data set [5] (setting [13]) worked out at 8.2 ± 1.8 µM. Moreover, the “Transport Type 1 (LAT1) Vmax” value in data set [5] (setting [13]) turned out to be 63 ± 8 pmol/mg/min. Besides, the “Cellular uptake in the presence of LAT1-inhibitor” value in data set [6] is on record as “inhibited significantly”. Besides, the “Conversion to parent drug in the analysed samples” value in data set [7] is reported as “partly converted to their parent”.
On to `C[C@H](C(=O)OCc1ccc(C[C@@H](N)C(=O)O)cc1)c1cccc(C(=O)c2ccccc2)c1` [Compound 14], for which the IC50 in data set [1] (setting [10]) was 91.5 ± 1.2 µM; in data set [1] (setting [11]), 32 ± 1.4 µM; in data set [1] (setting [12]) it was 37.6 ± 1.7 µM; in data set [2], 53 µM; in [8] it was 52.9 ± 1.3 µM. The “Vmax of [14C]-L-Leu uptake” value in [2] (BV2) is 2.622 ± 0.268 nmol/min/mg. Also, in data set [2] (BV2), the “Inhibition Type” value is reported as “Mixed type”. Moreover, the half-life at 100 μM in data set [3] was 2.2 ± 0.62 min. Besides, the Max. cellular uptake in data set [4] is listed as 10.20 ± 0.61 nmol/mg of protein. Also, the “Cellular uptake” value in data set [5] (BV2 cells) is “highest cellular uptake”. Besides, the “Cellular uptake in the presence of LAT1-inhibitor” value in [6] is on record as “only reductive trends were seen”. Besides, the “Conversion to parent drug in the analysed samples” value in data set [7] was “fully converted into ketoprofen”.
As to `CC(C)C[C@H](N)C(=O)O` [L-Leu (Crtl), L-leucine, reference compound], the “Vmax of [14C]-L-Leu uptake (control)” value in data set [2] (0.010–0.20 µM [14C]-L-Leu alone, no compound, BV2) was determined as 3.403 ± 0.055 nmol/min/mg. Further, the Km in data set [2] (0.010–0.20 µM [14C]-L-Leu alone, no compound, BV2, read-out: Km of [14C]-L-Leu uptake (control)) is 0.115 ± 0.007 µM; in [9] (read-out: Km of [14C]-L-leucine uptake) it was 85.8 ± 19.4 µM. In data set [9], the “Vmax of [14C]-L-leucine uptake” value turned out to be 0.84 ± 0.12 nmol/min/mg protein.
